Test results taken from PMC11764660, “Self-Assembled Peptide Hydrogels PPI45 and PPI47: Novel Drug Candidates for Staphylococcus aureus Infection Treatment” (Gels, 2025).
≈ marks a conversion by molar mass, not a printed value. Positions of bridges follow the written chain, without caps; N, C: chain ends. Residues, ends and D or L forms follow the SMILES beside them.

Experiments:
S. aureus ATCC 25923 [1] = assay: MIC assay; assay type: cell-based, Staphylococcus aureus; settings: 96-well plate, 10^5 CFU/mL, 37 °C, 12 to 18 h
Protocol: (§1) A series of concentration gradients of peptide solution (10, 20, 40, 80, 160, 320, 640, and 1280 µg/mL) and the bacterial suspension (10^5 CFU/mL) were added to a 96-well plate at a volume ratio of 10 µL: 90 µL. Subsequently, the plate was incubated at 37 °C for 12 to 18 h. The concentration in the final well of the 96-well plate where no bacterial growth is evident corresponds to the MIC value.

S. aureus CVCC 546 [2] = assay: MIC assay; assay type: cell-based, Staphylococcus aureus; settings: 96-well plate, 10^5 CFU/mL, 37 °C, 12 to 18 h
Protocol: as §1

[3] = tested on: S. epidermidis ATCC 35984; assay: MIC assay; assay type: cell-based, Staphylococcus epidermidis; settings: 96-well plate, 10^5 CFU/mL, 37 °C, 12 to 18 h
Protocol: as §1

[4] = tested on: Escherichia coli ATCC 25922; assay: MIC assay; assay type: cell-based; settings: 96-well plate, 10^5 CFU/mL, 37 °C, 12 to 18 h
Protocol: as §1

[5] = tested on: Pseudomonas aeruginosa ATCC 10104; assay: MIC assay; assay type: cell-based; settings: 96-well plate, 10^5 CFU/mL, 37 °C, 12 to 18 h
Protocol: as §1

[6] = tested on: Staphylococcus aureus ATCC 43300; assay: MIC assay; assay type: cell-based; settings: 96-well plate, 10^5 CFU/mL, 37 °C, 12 to 18 h
Protocol: as §1

[7] = tested on: Staphylococcus epidermidis ATCC 12228; assay: MIC assay; assay type: cell-based; settings: 96-well plate, 10^5 CFU/mL, 37 °C, 12 to 18 h
Protocol: as §1

[8] = tested on: Streptococcus agalactiae ATCC 13813; assay: MIC assay; assay type: cell-based; settings: 96-well plate, 10^5 CFU/mL, 37 °C, 12 to 18 h
Protocol: as §1

[9] = tested on: Streptococcus dysgalactiae CVCC 3938; assay: MIC assay; assay type: cell-based; settings: 96-well plate, 10^5 CFU/mL, 37 °C, 12 to 18 h
Protocol: as §1

S. aureus ATCC 25923 [10] = assay: MBC assay; assay type: cell-based, Staphylococcus aureus; settings: colony counting, 99.9% criterion
Source text: (§2) Microbial cultures are quantified at concentrations surpassing the MIC to ascertain the number of viable bacterial cells. The lowest concentration at which the number of colonies is less than 99.9% at the time of initial inoculation is defined as MBC, which is capable of killing the bacteria.

S. aureus CVCC 546 [11] = assay: MBC assay; assay type: cell-based, Staphylococcus aureus; settings: colony counting, 99.9% criterion
Source text: as §2

[12] = tested on: S. epidermidis ATCC 35984; assay: MBC assay; assay type: cell-based, Staphylococcus epidermidis; settings: colony counting, 99.9% criterion
Source text: as §2

[13] = tested on: Escherichia coli ATCC 25922; assay: MBC assay; assay type: cell-based; settings: colony counting, 99.9% criterion
Source text: as §2

[14] = tested on: Pseudomonas aeruginosa ATCC 10104; assay: MBC assay; assay type: cell-based; settings: colony counting, 99.9% criterion
Source text: as §2

[15] = tested on: Staphylococcus aureus ATCC 43300; assay: MBC assay; assay type: cell-based; settings: colony counting at concentrations surpassing the MIC, 99.9% criterion
Source text: as §2

[16] = tested on: Staphylococcus epidermidis ATCC 12228; assay: MBC assay; assay type: cell-based; settings: colony counting, 99.9% criterion
Source text: as §2

[17] = tested on: Streptococcus agalactiae ATCC 13813; assay: MBC assay; assay type: cell-based; settings: colony counting, 99.9% criterion
Source text: as §2

[18] = tested on: Streptococcus dysgalactiae CVCC 3938; assay: MBC assay; assay type: cell-based; settings: colony counting, 99.9% criterion
Source text: as §2

mouse erythrocytes = assay: Hemolytic activity; assay type: cell-based; settings: 1 h, 37 °C, absorbance 540 nm
Protocol: Equal volumes of the erythrocyte suspension and the peptide dilutions were combined and incubated for one hour at 37 °C. Subsequently, the mixture was centrifuged at 2000 rpm for 5 min, and the supernatant was transferred to a 96-well plate. The absorbance was then measured at 540 nm. Triton X-100 and physiological saline were employed as positive and negative controls, respectively. The percentage of hemolysis was calculated via the following formula:Hemolysis (%) = [(Apeptide − Asaline)/(A0.1% Triton X-100 − Asaline)] × 100%.

HaCaT cells = assay: Cytotoxicity analysis (CCK-8); assay type: cell-based, human; settings: 2–256 µg/mL, 24 h, CCK-8, absorbance 450 nm, six replicates
Protocol: HaCaT cells, at a density of 2.5 × 10^5 cells/mL, were inoculated into 96-well plates and incubated in a cell culture incubator for 24 h. Following the removal of the medium, an equal volume of peptide solution, ranging in concentration from 2 to 256 µg/mL, was added, and the cells were incubated for an additional 24 h. The medium was subsequently removed, and the wells were washed three times with saline. CCK-8 solution ([…], 100 µL per well) was then added, and the plates were incubated for 2 h. Absorbance was measured at 450 nm using a microplate reader. Saline served as the negative control, while the medium without cells was used as the blank control. Six replicates were set for each concentration. Cell survival is calculated as follows: (As − Ab)/(Ac − Ab) × 100%.
As: Absorbance value of the experimental group (medium containing cells, sample, CCK-8)
Ac: Absorbance value of the control group (medium containing cells, no sample, CCK-8)
Ab: Absorbance value of the blank group (medium without cells, no sample, CCK-8)

[19] = concentration range 20–2560 µg/mL

SMILES	MIC (S. aureus ATCC 25923 [1]) [µg/mL]	MIC (S. aureus CVCC 546 [2]) [µg/mL]	MIC [3] [µg/mL]	MIC [4] [µg/mL]	MIC [5] [µg/mL]	MIC [6] [µg/mL]	MIC [7] [µg/mL]	MIC [8] [µg/mL]	MIC [9] [µg/mL]	MBC (S. aureus ATCC 25923 [10]) [µg/mL]	MBC (S. aureus CVCC 546 [11]) [µg/mL]	MBC [12] [µg/mL]	MBC [13] [µg/mL]	MBC [14] [µg/mL]	MBC [15] [µg/mL]	MBC [16] [µg/mL]	MBC [17] [µg/mL]	MBC [18] [µg/mL]	hemolysis (mouse erythrocytes; [19])	cytotoxicity towards HaCaT cells (HaCaT cells)	also measured
CC[C@H](C)[C@@H]1NC(=O)[C@H](CO)NC(=O)[C@H](CCCCN)NC(=O)[C@@H]2CSSC[C@@H](C(=O)N[C@@H](Cc3ccc(O)cc3)C(=O)O)NC(=O)[C@H](CCCCN)NC(=O)[C@@H]3CSSC[C@H](NC(=O)[C@H](CCCCN)NC(=O)[C@H](CCSC)NC(=O)[C@H](CC(=O)O)NC(=O)[C@H](CC(=O)O)NC(=O)[C@H](CCC(=O)O)NC(=O)[C@H](CC(N)=O)NC(=O)[C@H](Cc4c[nH]c5ccccc45)NC(=O)[C@@H]4CCCN4C(=O)CNC(=O)[C@H](CC(N)=O)NC(=O)[C@@H](NC(=O)CNC(=O)[C@H](Cc4ccccc4)NC(=O)CN)CSSC[C@H](NC(=O)[C@H](Cc4ccc(O)cc4)NC(=O)CNC(=O)CNC(=O)[C@H](CCCCN)NC(=O)[C@H](Cc4ccc(O)cc4)NC(=O)CNC(=O)[C@H](CCCCN)NC1=O)C(=O)N[C@@H](C)C(=O)N[C@@H](CCCCN)C(=O)NCC(=O)NCC(=O)N[C@@H](Cc1ccccc1)C(=O)N[C@@H](CC(C)C)C(=O)N3)C(=O)N[C@@H](Cc1c[nH]cn1)C(=O)N[C@@H](CC(N)=O)C(=O)N[C@@H](Cc1c[nH]cn1)C(=O)N2 [PPI45] (H-GFGCNGPWNEDDMKCHNHCKSIKGYKGGYCAKGGFLCKCY-OH; disulfide 4-30, 15-37, 19-39)	16 (≈ 3.62 µM)	4 (≈ 0.906 µM)	16 (≈ 3.62 µM)	>64	>64	4 (≈ 0.906 µM)	4 (≈ 0.906 µM)	0.5 (≈ 0.113 µM)	1 (≈ 0.226 µM)	16 (≈ 3.62 µM)	4 (≈ 0.906 µM)	16 (≈ 3.62 µM)	>64	>64	4 (≈ 0.906 µM)	4 (≈ 0.906 µM)	0.5 (≈ 0.113 µM)	4 (≈ 0.906 µM)	no hemolysis	did not exhibit cytotoxicity	–
CC[C@H](C)[C@@H]1NC(=O)[C@H](CO)NC(=O)[C@H](CCCCN)NC(=O)[C@@H]2CSSC[C@@H](C(=O)N[C@@H](Cc3ccc(O)cc3)C(=O)O)NC(=O)[C@H](CCCCN)NC(=O)[C@@H]3CSSC[C@H](NC(=O)[C@H](CCCCN)NC(=O)[C@H](CCSC)NC(=O)[C@H](CC(=O)O)NC(=O)[C@H](CC(=O)O)NC(=O)[C@H](CCC(=O)O)NC(=O)[C@H](CO)NC(=O)[C@H](Cc4c[nH]c5ccccc45)NC(=O)[C@@H]4CCCN4C(=O)CNC(=O)[C@H](CC(N)=O)NC(=O)[C@@H](NC(=O)CNC(=O)[C@H](Cc4ccccc4)NC(=O)CN)CSSC[C@H](NC(=O)[C@H](Cc4ccc(O)cc4)NC(=O)CNC(=O)CNC(=O)[C@H](CCCCN)NC(=O)[C@H](Cc4ccc(O)cc4)NC(=O)CNC(=O)[C@H](CCCCN)NC1=O)C(=O)N[C@@H](C)C(=O)N[C@@H](CCCCN)C(=O)NCC(=O)NCC(=O)N[C@@H](Cc1ccccc1)C(=O)N[C@@H](CC(C)C)C(=O)N3)C(=O)N[C@@H](Cc1c[nH]cn1)C(=O)N[C@@H](CC(N)=O)C(=O)N[C@@H](Cc1c[nH]cn1)C(=O)N2 [PPI42, reference compound] (H-GFGCNGPWSEDDMKCHNHCKSIKGYKGGYCAKGGFLCKCY-OH; disulfide 4-30, 15-37, 19-39)	8 (≈ 1.82 µM)	2 (≈ 0.456 µM)	2 (≈ 0.456 µM)	>64	>64	8 (≈ 1.82 µM)	4 (≈ 0.912 µM)	0.5 (≈ 0.114 µM)	4 (≈ 0.912 µM)	16 (≈ 3.65 µM)	4 (≈ 0.912 µM)	8 (≈ 1.82 µM)	>64	>64	8 (≈ 1.82 µM)	8 (≈ 1.82 µM)	0.5 (≈ 0.114 µM)	4 (≈ 0.912 µM)	–	growth-promoting effects	hemolysis (mouse erythrocytes; 2560 µg/mL): 10%; hemolysis (mouse erythrocytes; up to 1280 µg/mL): minimal hemolysis
CC[C@H](C)[C@@H]1NC(=O)[C@H](CO)NC(=O)[C@H](CCCCN)NC(=O)[C@@H]2CSSC[C@@H](C(=O)N[C@@H](Cc3ccc(O)cc3)C(=O)O)NC(=O)[C@H](CCCCN)NC(=O)[C@@H]3CSSC[C@H](NC(=O)[C@H](CCCNC(=N)N)NC(=O)[C@H](CC(C)C)NC(=O)[C@H](CC(=O)O)NC(=O)[C@H](CC(=O)O)NC(=O)[C@H](CCC(=O)O)NC(=O)[C@H](CO)NC(=O)[C@H](Cc4c[nH]c5ccccc45)NC(=O)[C@@H]4CCCN4C(=O)CNC(=O)[C@H](CC(N)=O)NC(=O)[C@@H](NC(=O)CNC(=O)[C@H](Cc4ccccc4)NC(=O)CN)CSSC[C@H](NC(=O)[C@H](Cc4ccc(O)cc4)NC(=O)CNC(=O)CNC(=O)[C@H](CCCCN)NC(=O)[C@H](Cc4ccc(O)cc4)NC(=O)CNC(=O)[C@H](CCCCN)NC1=O)C(=O)N[C@@H](C)C(=O)N[C@@H](CCCCN)C(=O)NCC(=O)NCC(=O)N[C@@H](Cc1ccccc1)C(=O)N[C@@H](CC(C)C)C(=O)N3)C(=O)N[C@@H](Cc1c[nH]cn1)C(=O)N[C@@H](CC(N)=O)C(=O)N[C@@H](Cc1c[nH]cn1)C(=O)N2 [PPI47] (H-GFGCNGPWSEDDLRCHNHCKSIKGYKGGYCAKGGFLCKCY-OH; disulfide 4-30, 15-37, 19-39)	16 (≈ 3.64 µM)	4 (≈ 0.909 µM)	16 (≈ 3.64 µM)	>64	>64	4 (≈ 0.909 µM)	4 (≈ 0.909 µM)	0.5 (≈ 0.114 µM)	2 (≈ 0.455 µM)	16 (≈ 3.64 µM)	4 (≈ 0.909 µM)	16 (≈ 3.64 µM)	>64	>64	8 (≈ 1.82 µM)	8 (≈ 1.82 µM)	0.5 (≈ 0.114 µM)	4 (≈ 0.909 µM)	no hemolysis	did not exhibit cytotoxicity	–
